{
  "source": "patent US20230372264A1",
  "about": "(priority 2020, published 2023)",
  "origin": "cited, not measured here",
  "key": {"[1]": {"test_system": "Candida sp.", "conditions": "reference [27]"}, "[2]": {"test_system": "Staphylococcus aureus", "conditions": "reference [27]"}, "[3]": {"test_system": "Streptococcus spp.", "conditions": "reference [27]"}, "[4]": {"test_system": "human breast cancer cells", "conditions": "reference [16]"}, "[5]": {"test_system": "SARS-CoV", "conditions": "reference [9]"}, "[6]": {"test_system": "ACE2 receptor bonds with viral S-glycoproteins", "conditions": "in vitro cellular models, cholesterol depletion, reference [5]"}},
  "data": [
    {"compound": "OCCc1ccc(O)c(O)c1", "note": "[hydroxytyrosol, 4-(2-hydroxyethyl)-1,2-dihydroxybenzene]", "values": [
      {"measurement": "growth reduction", "setting": "[1]", "result": 40, "unit": "%"},
      {"measurement": "growth reduction", "setting": "[2]", "result": 40, "unit": "%"},
      {"measurement": "growth reduction", "setting": "[3]", "result": 40, "unit": "%"}
    ]},
    {"compound": "hydroxypropyl-α-cyclodextrin", "values": [
      {"measurement": "effectiveness against migration vs hydroxypropyl-β-cyclodextrin", "setting": "[4]", "result": "twice as effective"}
    ]},
    {"compound": "methyl-β-cyclodextrin [MβCD]", "values": [
      {"measurement": "inhibition of SARS-CoV infectivity", "setting": "[5]", "result": 90, "unit": "%"},
      {"measurement": "number of ACE2 receptor bonds with viral S-glycoproteins", "setting": "[6]", "result": "halves"}
    ]}
  ]
}
